Common to all, as to format: physicochemical
The nature of series [1]: Solubility.
Series [2] can be described thus: Hygroscopicity: absorption of atmospheric water, measured by TGA. The settings on record: relative humidity of 80%, 100% at room temperature, non-hygroscopic = less than 0.2% (w/w) absorption of atmospheric water by TGA. The source says:
As used herein the term non-hygroscopic in relation to crystalline Eltrombopag refers to less than 0.2% (w/w) absorption of atmospheric water to the crystalline Eltrombopag in the above specified conditions, as measured by TGA.

Series [3] is described as follows: Thermo-dynamical stability: conversion to other solid state forms under heating, measured by XRPD. The note with it: heating up to 200° C. at 10° C./minute, defined as less than 20%, 5%, 1%, or 0.5% conversion to any other solid state form by XRPD. On the procedure:
As used herein the term “thermo-dynamical stability” in relation to crystalline Eltrombopag form I refers to less than 20%, 10%, 5%, 1%, or 0.5% conversion of crystalline Eltrombopag form Ito any other solid state form of Eltrombopag under heating up to temperature of 200° C. at a heating rate of 10° C./minute, as measured by XRPD. In some embodiments, the conversion is 1%-20%, 1%-10% or 1%-5%.

As for `CC1=NN(c2ccc(C)c(C)c2)C(=O)/C1=N\Nc1cccc(-c2cccc(C(=O)O)c2)c1O` [Eltrombopag bisethanolamine form II], the solubility in water result in series [1] (water) is listed as “highly soluble in water”. Turning to `CC1=NN(c2ccc(C)c(C)c2)C(=O)/C1=N\Nc1cccc(-c2cccc(C(=O)O)c2)c1O` [Eltrombopag form III], the hygroscopicity result in series [2] (at least 10 months) is given as “non-hygroscopic”. As for `CC1=NN(c2ccc(C)c(C)c2)C(=O)/C1=N\Nc1cccc(-c2cccc(C(=O)O)c2)c1O` [Eltrombopag form I], the thermo-dynamical stability entry in series [3] is given as “advantageous”. In addition, the solubility result in series [1] (medium not stated) is recorded as “advantageous”. As for `CC1=NN(c2ccc(C)c(C)c2)C(=O)/C1=N\Nc1cccc(-c2cccc(C(=O)O)c2)c1O` [Eltrombopag form XVI], in series [2] (at least 5 months), the hygroscopicity result is reported as “non-hygroscopic”.

The values are drawn from US8372822B2, “Polymorphs of eltrombopag and eltrombopag salts and processes for preparation thereof” (Pliva Hrvatska D.O.O., priority 2009, dated 2013).
